What was measured:
[1] = Inhibition of starfish oocytes CDK1/cyclin B; set-up: species or system Marthasterias glacialis; conditions: oocyte
[2] = target: Cyclin-dependent kinase 5/CDK5 activator 1 (Homo sapiens, UniProt Q00535)
Description: Inhibition of human recombinant CDK5/p25 expressed in Escherichia coli

[3] = tested on: HEK293; test: Antiproliferative activity against human HEK293 cells after 48 hrs by MTS reduction assay; format: cell-based; conditions: HEK293, 48 h
[4] = tested on: SN12C; test: Antiproliferative activity against human SN12C cells after 72 hrs by ViaLight assay; format: functional
[5] = tested on: Raji; test: Antiproliferative activity against human Raji cells after 72 hrs by ViaLight assay; format: functional, cell-based
[6] = tested on: UO-31; test: cells; conditions: Homo sapiens, UO-31, 72 h
Description: Antiproliferative activity against human UO31 cells after 72 hrs by ViaLight assay

[7] = tested on: CCRF-CEM; test: cells; conditions: Homo sapiens, 72 h
Description: Antiproliferative activity against human CCRF-CEM cells after 72 hrs by ViaLight assay

[8] = cells; conditions: Homo sapiens, HL-60, 72 h
Description: Antiproliferative activity against human HL60(TB) cells after 72 hrs by ViaLight assay

[9] = tested on: K562; test: cells; conditions: Homo sapiens, K562, 72 h
Description: Antiproliferative activity against human K562 cells after 72 hrs by ViaLight assay

[10] = tested on: MOLT-4; test: cells; conditions: Homo sapiens, MOLT-4, 72 h
Description: Antiproliferative activity against human MOLT4 cells after 72 hrs by ViaLight assay

[11] = tested on: SR; test: cells; conditions: Homo sapiens, 72 h
Description: Antiproliferative activity against human SR cells after 72 hrs by ViaLight assay

[12] = tested on: HOP-92; test: cells; conditions: Homo sapiens, HOP-92, 72 h
Description: Antiproliferative activity against human HOP92 cells after 72 hrs by ViaLight assay

[13] = tested on: NCI-H226; test: cells; conditions: Homo sapiens, NCI-H226, 72 h
Description: Antiproliferative activity against human NCI-H226 cells after 72 hrs by ViaLight assay

[14] = tested on: NCI-H322M; test: cells; conditions: Homo sapiens, 72 h
Description: Antiproliferative activity against human NCI-H322M cells after 72 hrs by ViaLight assay

[15] = tested on: COLO 205; test: cells; conditions: Homo sapiens, COLO 205, 72 h
Description: Antiproliferative activity against human COLO205 cells after 72 hrs by ViaLight assay

[16] = tested on: HCC 2998; test: cells; conditions: Homo sapiens, HCC 2998, 72 h
Description: Antiproliferative activity against human HCC2998 cells after 72 hrs by ViaLight assay

[17] = tested on: HCT-15; test: cells; conditions: Homo sapiens, HCT-15, 72 h
Description: Antiproliferative activity against human HCT15 cells after 72 hrs by ViaLight assay

[18] = tested on: HT-29; test: cells; conditions: Homo sapiens, HT-29, 72 h
Description: Antiproliferative activity against human HT29 cells after 72 hrs by ViaLight assay

[19] = tested on: SF-295; test: cells; conditions: Homo sapiens, SF-295, 72 h
Description: Antiproliferative activity against human SF295 cells after 72 hrs by ViaLight assay

[20] = tested on: SF-539; test: cells; conditions: Homo sapiens, SF-539, 72 h
Description: Antiproliferative activity against human SF539 cells after 72 hrs by ViaLight assay

[21] = tested on: SNB-19; test: cells; conditions: Homo sapiens, SNB-19, 72 h
Description: Antiproliferative activity against human SNB19 cells after 72 hrs by ViaLight assay

[22] = tested on: U-251; test: cells; conditions: Homo sapiens, U-251, 72 h
Description: Antiproliferative activity against human U251 cells after 72 hrs by ViaLight assay

[23] = tested on: Malme-3M; test: cells; conditions: Homo sapiens, 72 h
Description: Antiproliferative activity against human MALME-3M cells after 72 hrs by ViaLight assay

[24] = tested on: M14; test: cells; conditions: Homo sapiens, M14, 72 h
Description: Antiproliferative activity against human M14 cells after 72 hrs by ViaLight assay

[25] = tested on: UACC-62; test: cells; conditions: Homo sapiens, UACC-62, 72 h
Description: Antiproliferative activity against human UACC62 cells after 72 hrs by ViaLight assay

[26] = tested on: IGROV-1; test: cells; conditions: Homo sapiens, IGROV-1, 72 h
Description: Antiproliferative activity against human IGROV1 cells after 72 hrs by ViaLight assay

[27] = tested on: OVCAR-4; test: cells; conditions: Homo sapiens, OVCAR-4, 72 h
Description: Antiproliferative activity against human OVCAR4 cells after 72 hrs by ViaLight assay

[28] = tested on: NCI/ADR-RES; test: cells; conditions: Homo sapiens, 72 h
Description: Antiproliferative activity against human NCI/ADR-RES cells after 72 hrs by ViaLight assay

[29] = cells; conditions: Homo sapiens, Hs-578T, 72 h
Description: Antiproliferative activity against human Hs 578T cells after 72 hrs by ViaLight assay

[30] = tested on: MDA-MB-435; test: cells; conditions: Homo sapiens, MDA-MB-435, 72 h
Description: Antiproliferative activity against human MDA-MB-435 cells after 72 hrs by ViaLight assay

[31] = tested on: MDA-MB-468; test: cells; conditions: Homo sapiens, MDA-MB-468, 72 h
Description: Antiproliferative activity against human MDA-MB-468 cells after 72 hrs by ViaLight assay

Chain of Cyclin-dependent kinase 5/CDK5 activator 1 (Q00535 whole entry): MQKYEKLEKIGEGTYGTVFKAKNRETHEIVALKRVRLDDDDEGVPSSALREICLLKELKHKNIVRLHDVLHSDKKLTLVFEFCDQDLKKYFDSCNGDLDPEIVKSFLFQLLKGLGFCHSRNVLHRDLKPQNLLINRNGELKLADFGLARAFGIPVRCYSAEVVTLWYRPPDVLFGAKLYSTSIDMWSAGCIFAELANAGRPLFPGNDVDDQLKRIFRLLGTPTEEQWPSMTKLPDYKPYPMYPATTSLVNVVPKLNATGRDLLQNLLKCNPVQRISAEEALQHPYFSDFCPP
Chain of Cyclin-dependent kinase 5/CDK5 activator 1 (Q15078 whole entry, further chain): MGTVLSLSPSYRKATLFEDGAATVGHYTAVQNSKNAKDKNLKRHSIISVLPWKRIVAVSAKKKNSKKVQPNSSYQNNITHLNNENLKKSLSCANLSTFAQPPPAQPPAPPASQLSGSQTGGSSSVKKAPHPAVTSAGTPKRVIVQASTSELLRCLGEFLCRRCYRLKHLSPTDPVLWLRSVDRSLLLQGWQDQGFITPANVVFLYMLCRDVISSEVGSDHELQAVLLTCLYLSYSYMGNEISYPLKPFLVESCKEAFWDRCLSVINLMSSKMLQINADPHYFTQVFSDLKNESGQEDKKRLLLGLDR

`CC[C@H](CO)Nc1nc(NCc2ccccc2)n2ncc(C(C)C)c2n1` gave an IC50 [1] of 0.073 µM, an IC50 [2] of 0.07 µM and an IC50 [3] of 7.6 µM. It also gave a GI50 ([4]; read-out: GI50) of 2.41 µM, a CC50 ([4]; read-out: LC50 (the source's name)) of 58.1 µM and a TGI ([4]; read-out: TGI) of 14.4 µM. For the same compound, the GI50 ([4]; read-out: pGI50 (converted)) was 3.02 µM, the CC50 ([4]; read-out: pLC50 (the source's name) (converted)) was 57.5 µM and the TGI ([4]; read-out: pTGI (converted)) was 14.5 µM. The Activity [5] was “Dose-dependent effect”, the GI50 [6] was 1.59 µM and the TGI [6] was > 100 µM. The GI50 ([6]; read-out: pGI50 (converted)) was 1.58 µM, the TGI ([6]; read-out: pTGI) was 100 µM and the GI50 [7] was 0.65 µM. The TGI [7] was 9.26 µM, the CC50 ([7]; read-out: LC50) was > 100 µM and the GI50 ([7]; read-out: pGI50 (converted)) was 0.646 µM. It also gave a CC50 ([7]; read-out: pLC50 (converted)) of 100 µM, a TGI ([7]; read-out: pTGI) of 9.33 µM and a GI50 [8] of 0.41 µM. The TGI [8] was 2.68 µM, the CC50 ([8]; read-out: LC50) was > 100 µM and the GI50 ([8]; read-out: pGI50 (converted)) was 0.407 µM. It also gave a CC50 ([8]; read-out: pLC50 (converted)) of 100 µM, a TGI ([8]; read-out: pTGI) of 2.69 µM and a GI50 [9] of 2.44 µM. For the same compound, the TGI [9] was 7.38 µM, the CC50 ([9]; read-out: LC50) was > 100 µM and the GI50 ([9]; read-out: pGI50 (converted)) was 2.45 µM. It also gave a CC50 ([9]; read-out: pLC50 (converted)) of 100 µM, a TGI ([9]; read-out: pTGI) of 7.41 µM and a GI50 [10] of 2.18 µM. For the same compound, the TGI [10] was 9.45 µM, the CC50 ([10]; read-out: LC50) was > 100 µM and the GI50 ([10]; read-out: pGI50 (converted)) was 2.19 µM. For the same compound, the CC50 ([10]; read-out: pLC50 (converted)) was 100 µM, the TGI ([10]; read-out: pTGI) was 9.55 µM and the GI50 [11] was 0.25 µM. For the same compound, the TGI [11] was 1.59 µM, the CC50 ([11]; read-out: LC50) was > 100 µM and the GI50 ([11]; read-out: pGI50 (converted)) was 2.51 µM. For the same compound, the CC50 ([11]; read-out: pLC50 (converted)) was 100 µM, the TGI ([11]; read-out: pTGI) was 1.58 µM and the GI50 [12] was 1.67 µM. For the same compound, the TGI [12] was 7.1 µM, the CC50 ([12]; read-out: LC50) was > 100 µM and the GI50 ([12]; read-out: pGI50 (converted)) was 1.66 µM. The CC50 ([12]; read-out: pLC50 (converted)) was 100 µM, the TGI ([12]; read-out: pTGI) was 7.08 µM and the GI50 [13] was 1.84 µM. For the same compound, the TGI [13] was 10.1 µM, the CC50 ([13]; read-out: LC50) was > 100 µM and the GI50 ([13]; read-out: pGI50 (converted)) was 1.86 µM. For the same compound, the CC50 ([13]; read-out: pLC50 (converted)) was 100 µM, the TGI ([13]; read-out: pTGI) was 10.5 µM and the GI50 [14] was 1.86 µM. The TGI [14] was 8.92 µM, the CC50 ([14]; read-out: LC50) was > 100 µM and the GI50 ([14]; read-out: pGI50 (converted)) was 1.86 µM. The CC50 ([14]; read-out: pLC50 (converted)) was 100 µM, the TGI ([14]; read-out: pTGI) was 8.91 µM and the GI50 [15] was 1.12 µM. For the same compound, the TGI [15] was 3.15 µM, the CC50 ([15]; read-out: LC50) was 8.86 µM and the GI50 ([15]; read-out: pGI50 (converted)) was 1.12 µM. For the same compound, the CC50 ([15]; read-out: pLC50 (converted)) was 8.71 µM, the TGI ([15]; read-out: pTGI) was 3.16 µM and the GI50 [16] was 1.2 µM. The TGI [16] was 3.27 µM, the CC50 ([16]; read-out: LC50) was 8.96 µM and the GI50 ([16]; read-out: pGI50 (converted)) was 1.2 µM. For the same compound, the CC50 ([16]; read-out: pLC50 (converted)) was 8.71 µM, the TGI ([16]; read-out: pTGI) was 3.24 µM and the GI50 [17] was 0.87 µM. The TGI [17] was 10.5 µM, the CC50 ([17]; read-out: LC50) was > 100 µM and the GI50 ([17]; read-out: pGI50 (converted)) was 8.91 µM. For the same compound, the CC50 ([17]; read-out: pLC50 (converted)) was 100 µM, the TGI ([17]; read-out: pTGI) was 10.5 µM and the GI50 [18] was 2 µM. For the same compound, the TGI [18] was 15.5 µM, the CC50 ([18]; read-out: LC50) was > 100 µM and the GI50 ([18]; read-out: pGI50 (converted)) was 2 µM. It also gave a CC50 ([18]; read-out: pLC50 (converted)) of 100 µM, a TGI ([18]; read-out: pTGI) of 15.5 µM and a GI50 [19] of 0.81 µM. The TGI [19] was 4.74 µM, the GI50 ([19]; read-out: pGI50 (converted)) was 0.813 µM and the TGI ([19]; read-out: pTGI) was 4.79 µM. It also gave a GI50 [20] of 1.22 µM, a TGI [20] of 3.62 µM and a CC50 ([20]; read-out: LC50) of 11.9 µM. It also gave a GI50 ([20]; read-out: pGI50 (converted)) of 1.23 µM, a CC50 ([20]; read-out: pLC50 (converted)) of 11.7 µM and a TGI ([20]; read-out: pTGI) of 3.63 µM. For the same compound, the GI50 [21] was 1.44 µM, the TGI [21] was 12.3 µM and the CC50 ([21]; read-out: LC50) was > 100 µM. For the same compound, the GI50 ([21]; read-out: pGI50 (converted)) was 1.15 µM, the CC50 ([21]; read-out: pLC50 (converted)) was 100 µM and the TGI ([21]; read-out: pTGI) was 12.3 µM. For the same compound, the GI50 [22] was 1.4 µM, the TGI [22] was 10.5 µM and the CC50 ([22]; read-out: LC50) was > 100 µM. For the same compound, the GI50 ([22]; read-out: pGI50 (converted)) was 1.41 µM, the CC50 ([22]; read-out: pLC50 (converted)) was 100 µM and the TGI ([22]; read-out: pTGI) was 10.5 µM. For the same compound, the GI50 [23] was 2.6 µM, the TGI [23] was 6.99 µM and the CC50 ([23]; read-out: LC50) was 43.5 µM. The GI50 ([23]; read-out: pGI50 (converted)) was 2.63 µM, the CC50 ([23]; read-out: pLC50 (converted)) was 43.7 µM and the TGI ([23]; read-out: pTGI) was 6.92 µM. For the same compound, the GI50 [24] was 2 µM, the TGI [24] was 7.93 µM and the CC50 ([24]; read-out: LC50) was 34.3 µM. For the same compound, the GI50 ([24]; read-out: pGI50 (converted)) was 2 µM, the CC50 ([24]; read-out: pLC50 (converted)) was 34.7 µM and the TGI ([24]; read-out: pTGI) was 7.94 µM. The GI50 [25] was 1.37 µM, the TGI [25] was 5.5 µM and the CC50 ([25]; read-out: LC50) was 31.1 µM. The GI50 ([25]; read-out: pGI50 (converted)) was 1.38 µM, the CC50 ([25]; read-out: pLC50 (converted)) was 30.9 µM and the TGI ([25]; read-out: pTGI) was 5.5 µM. For the same compound, the GI50 [26] was 0.78 µM, the TGI [26] was > 100 µM and the CC50 ([26]; read-out: LC50) was > 100 µM. The GI50 ([26]; read-out: pGI50 (converted)) was 0.776 µM, the CC50 ([26]; read-out: pLC50 (converted)) was 100 µM and the TGI ([26]; read-out: pTGI) was 100 µM. For the same compound, the GI50 [27] was 2.57 µM, the TGI [27] was 37 µM and the CC50 ([27]; read-out: LC50) was > 100 µM. For the same compound, the GI50 ([27]; read-out: pGI50 (converted)) was 2.63 µM, the CC50 ([27]; read-out: pLC50 (converted)) was 100 µM and the TGI ([27]; read-out: pTGI) was 0.372 µM. For the same compound, the GI50 [28] was 2.08 µM, the TGI [28] was 15.7 µM and the CC50 ([28]; read-out: LC50) was > 100 µM. For the same compound, the GI50 ([28]; read-out: pGI50 (converted)) was 2.09 µM, the CC50 ([28]; read-out: pLC50 (converted)) was 100 µM and the TGI ([28]; read-out: pTGI) was 15.8 µM. The GI50 [29] was 1.59 µM, the TGI [29] was 6.16 µM and the CC50 ([29]; read-out: LC50) was > 100 µM. It also gave a GI50 ([29]; read-out: pGI50 (converted)) of 1.58 µM, a CC50 ([29]; read-out: pLC50 (converted)) of 100 µM and a TGI ([29]; read-out: pTGI) of 6.17 µM. The GI50 [30] was 2.06 µM, the TGI [30] was 10.1 µM and the CC50 ([30]; read-out: LC50) was 41.4 µM. It also gave a GI50 ([30]; read-out: pGI50 (converted)) of 2.09 µM, a CC50 ([30]; read-out: pLC50 (converted)) of 41.7 µM and a TGI ([30]; read-out: pTGI) of 10 µM. The GI50 [31] was 1.88 µM, the TGI [31] was 5.19 µM and the CC50 ([31]; read-out: LC50) was 63.5 µM. For the same compound, the GI50 ([31]; read-out: pGI50 (converted)) was 1.86 µM, the CC50 ([31]; read-out: pLC50 (converted)) was 63.1 µM and the TGI ([31]; read-out: pTGI) was 5.25 µM.

Reference: ChEMBL document CHEMBL1143353, “Pyrazolo[1,5-a]-1,3,5-triazine as a purine bioisostere: access to potent cyclin-dependent kinase inhibitor (R)-roscovitine analogue” (J Med Chem, 2009)
